Laboratory results as given in patent publication US20240216458A1, “Composition for the prevention, improvement or treatment of allergic diseases comprising an extract of Cassia mimosoides L. as an active ingredient” (KOREA INSTITUTE OF SCIENCE AND TECHNOLOGY, priority 2022, published 2024).

How the values were obtained:
Type in all cases: cell-based, rat
Details in all cases: compound 20 μM
[1] = system: RBL-2H3 mast cells; assay: Interleukin-4 production secreted by mast cells (ELISA)
Method: (§1) First, RBL-2H3 mast cells were seeded at 2×10^5 cells/well in a 24-well microtiter plate containing Dulbecco's Modified Eagle's Media (DMEM) medium containing 2.5% fetal bovine serum, and cultured until they grew to 80% confluence. Afterwards, ethanol extract of Cassia mimosoides L. prepared in <Example 1> was added to serum-free DMEM medium at a concentration of 20 μg/ml and 40 μg/ml, respectively, and mast cells were cultured for 24 hours. After treating mast cells with DNP-BSA for 30 minutes, the cell culture fluid was collected, centrifuged, and only the supernatant was harvested. The amount of interleukin-4 in the supernatant was confirmed using an ELISA kit (Invitrogen, USA).
Mast cells were cultured in the same manner as in Example 5, and then treated with 17 compounds isolated in Example 12 at a concentration of 20 μM, respectively.

[2] = system: RBL-2H3 mast cells; assay: Histamine production secreted by mast cells (EIA kit)
Method: as §1, with “histamine” for “interleukin-4”, “EIA” for “ELISA”, “(Bertin Pharma, France).” for “(Invitrogen, USA).”
Mast cells were cultured in the same manner as in Example 3, and then treated with 17 compounds isolated in Example 12 at a concentration of 20 μM, respectively.

[3] = system: RBL-2H3 mast cells; assay: TNF-α production secreted by mast cells (ELISA)
Method: as §1, with “TNF-α” for “interleukin-4”
Mast cells were cultured in the same manner as in Example 4, and then treated with 17 compounds isolated in Example 12 at a concentration of 20 μM, respectively.

[4] = system: RBL-2H3 mast cells; assay: Secretion of allergens in mast cell granules (beta-hexosaminidase activity, degranulation) after DNP-BSA stimulation
Method: First, rat basophilic leukocyte (RBL-2H3, American Type Culture Collection, USA) mast cells were cultured in minimal medium containing antibiotics and 10% bovine serum. After culturing, the cells were collected with trypsin, placed in a 24-well microtiter plate at 2×10^5 cells/well, and cultured until they grew to 80% confluence. The medium was replaced with PIPES buffer (25 mM PIPES, PH 7.2, 159 mM NaCl, 5 mM KCl, 0.4 mM MgCl2, 1 mM CaCl2), 5.6 mM glucose, and 0.1% BSA) for the cultured cells, and then ethanol extract of Cassia mimosoides L. prepared in <Example 1> was added to concentrations of 20 μg/ml and 40 μg/ml, respectively, and cultured for 1 hour. […]
The degree of secretion of allergy-inducing substances was determined by measuring the activity of beta-hexosaminidase, a marker of degranulation secreted in the medium, and the activity of beta-hexosaminidase was determined as the amount of p-nitrophenol liberated from p-nitrophenyl-acetyl-β-D-glucosaminide (Funaba M. et al., Cell Biol. Int., 27:879-85, 2003). […]
The degree of allergen secretion was determined by measuring the activity of β-hexosaminidase, a marker of degranulation, which was secreted in the medium, and the activity of β-hexosaminidase was determined as the amount of p-nitrophenyl liberated from p-nitrophenyl-acetyl-β-D-glucosaminide (Funaba M. et al, Cell Biol. Int., 27:879-85, 2003). […]

[5] = system: RBL-2H3 mast cells; assay: Prostaglandin E2 production secreted by mast cells (ELISA)
Method: as §1, with “prostaglandin E2” for “interleukin-4”, “(R&D systems,” for “(Invitrogen,”
Mast cells were cultured in the same manner as in Example 6, and then treated with 17 compounds isolated in Example 12 at a concentration of 20 μM, respectively.

Oc1ccc2c(c1)OC(c1ccc(O)c(O)c1)C[C@H]2c1c(O)cc(O)c2c1OC(c1ccc(O)c(O)c1)[C@@H](O)C2 (stereo partly drawn) [KA-1, (2S)-3′,4′,7-trihydroxyflavan-(4 β - >8)-catechin]
excellent efficacy: production of interleukin-4 secreted by mast cells [1] | production of histamine secreted by mast cells [2] | production of TNF-α secreted by mast cells [3] | mast cell degranulation [4] | production of prostaglandin E2 secreted by mast cells [5]

Oc1ccc2c(c1)OC(c1ccc(O)c(O)c1)CC2c1c(O)cc(O)c2c1OC(c1ccc(O)c(O)c1)[C@@H](O)C2 (stereo partly drawn) [KA-2, (2S)-3′,4′,7-trihydroxyflavan-(4 α - >8)-catechin]
excellent efficacy: production of interleukin-4 secreted by mast cells [1] | production of histamine secreted by mast cells [2] | production of TNF-α secreted by mast cells [3] | mast cell degranulation [4] | production of prostaglandin E2 secreted by mast cells [5]
